Experimental data published in ChEMBL document CHEMBL1133609, “DoMCoSAR: a novel approach for establishing the docking mode that is consistent with the structure-activity relationship. Application to HIV-1 protease inhibitors and VEGF receptor tyrosine kinase inhibitors” (J Med Chem, 2000).

molecular target: Human immunodeficiency virus type 1 protease (Human immunodeficiency virus 1, UniProt Q72874); assay: Inhibitory activity against HIV-1 protease.

SMILES	IC50 [µM]
CC(C)(C)OC(=O)N[C@@H](Cc1ccccc1)[C@@H](O)C[C@@H](Cc1ccccc1)C(=O)N[C@@H]1c2ccccc2OC[C@H]1O	0.00018
CC(C)(C)OC(=O)N[C@@H](Cc1ccccc1)[C@@H](O)C[C@@H](Cc1ccccc1)C(=O)N[C@@H]1c2ccccc2[C@@H](O)[C@H]1O	0.0001
Cc1ccc(C[C@H](C[C@H](O)[C@H](Cc2ccccc2)NC(=O)OC(C)(C)C)C(=O)N[C@@H]2c3ccccc3C[C@H]2O)cc1	0.00029
CC(C)(C)OC(=O)N[C@@H](Cc1ccccc1)[C@@H](O)C[C@@H](CSc1ccccc1)C(=O)N[C@@H]1c2ccccc2C[C@H]1O	0.00025
CC(C)(C)OC(=O)N[C@@H](Cc1ccccc1)[C@@H](O)C[C@@H](Cc1ccccc1)C(=O)N[C@H]1CCc2ccccc21	0.0343
CC(C)(C)OC(=O)N[C@@H](Cc1ccccc1)[C@@H](O)C[C@@H](Cc1ccc(C(F)(F)F)cc1)C(=O)N[C@@H]1c2ccccc2C[C@H]1O	0.00026
CC(C)(C)OC(=O)N[C@@H](Cc1ccccc1)[C@@H](O)C[C@@H](Cc1ccccc1)C(=O)N[C@@H]1c2ccccc2CC[C@H]1O	0.0007
CC(C)(C)OC(=O)N[C@@H](Cc1ccccc1)[C@@H](O)C[C@@H](Cc1ccc(N)cc1)C(=O)N[C@@H]1c2ccccc2C[C@H]1O	0.00031
CC(C)(C)OC(=O)N[C@@H](Cc1ccccc1)[C@@H](O)C[C@@H](Cc1ccccc1)C(=O)N[C@@H]1c2ccccc2C[C@H]1O	0.00025
CC(C)(C)OC(=O)N[C@@H](Cc1ccccc1)[C@@H](O)C[C@@H](CC(=O)c1ccccc1)C(=O)N[C@@H]1c2ccccc2C[C@H]1O	0.00542
CC(C)(C)OC(=O)N[C@@H](Cc1ccccc1)[C@@H](O)C[C@@H](Cc1ccc(O)cc1)C(=O)N[C@@H]1c2ccccc2C[C@H]1O	0.00016
CC(C)(C)OC(=O)N[C@@H](Cc1ccccc1)[C@@H](O)CCC(=O)N[C@@H]1c2ccccc2C[C@H]1O	2.94
CC(C)(C)OC(=O)N[C@@H](Cc1ccccc1)[C@@H](O)C[C@@H](Cc1ccc(C(C)(C)C)cc1)C(=O)N[C@@H]1c2ccccc2C[C@H]1O	0.00017
CC(C)(C)OC(=O)N[C@@H](Cc1ccccc1)[C@@H](O)C[C@@](C)(Cc1ccccc1)C(=O)N[C@@H]1c2ccccc2C[C@H]1O	0.00771
C=CC[C@H](C[C@H](O)[C@H](Cc1ccccc1)NC(=O)OC(C)(C)C)C(=O)N[C@@H]1c2ccccc2C[C@H]1O	0.0275
COC(=O)[C@@H]1Cc2ccccc2[C@H]1NC(=O)[C@H](Cc1ccccc1)C[C@H](O)[C@H](Cc1ccccc1)NC(=O)OC(C)(C)C	0.0662
CC(C)(C)OC(=O)N[C@@H](Cc1ccccc1)[C@@H](O)C[C@@H](Cc1ccncc1)C(=O)N[C@@H]1c2ccccc2C[C@H]1O	0.00053
CC(C)(C)OC(=O)N[C@@H](Cc1ccccc1)[C@@H](O)C[C@@H](Cc1c(F)c(F)c(F)c(F)c1F)C(=O)N[C@@H]1c2ccccc2C[C@H]1O	0.0006
CC(C)(C)OC(=O)N[C@@H](Cc1ccccc1)[C@@H](O)C[C@@H](Cc1ccc([N+](=O)[O-])cc1)C(=O)N[C@@H]1c2ccccc2C[C@H]1O	0.00027
CC(C)(C)OC(=O)N[C@@H](Cc1ccccc1)[C@@H](O)C[C@@H](C/C=C/c1ccccc1)C(=O)N[C@@H]1c2ccccc2C[C@H]1O	0.00023
CC(C)(C)OC(=O)N[C@@H](Cc1ccccc1)[C@@H](O)C[C@@H](Cc1ccc(I)cc1)C(=O)N[C@@H]1c2ccccc2C[C@H]1O	0.000719
CC(C)(C)OC(=O)N[C@@H](Cc1ccccc1)[C@@H](O)C[C@@H](Cc1ccccc1)C(=O)N[C@@H]1C=CC[C@H]1O	0.00953
CC(C)(C)OC(=O)N[C@@H](Cc1ccccc1)[C@@H](O)C[C@@H](CCCc1ccccc1)C(=O)N[C@@H]1c2ccccc2[C@@H](O)[C@H]1O	0.00019
CC(C)(C)OC(=O)N[C@@H](Cc1ccccc1)[C@@H](O)C[C@@H](Cc1ccccc1)C(=O)N[C@@H]1CCCC[C@H]1O	0.122
CC(C)(C)OC(=O)N[C@@H](Cc1ccccc1)[C@@H](O)C[C@@H](Cc1ccccc1)C(=O)N[C@H]1c2ccccc2OC[C@@H]1O	0.0406

molecular target: Vascular endothelial growth factor receptor 2 (Mus musculus, UniProt P35918); assay: Inhibitory activity against vascular endothelial growth factor receptor 2 (FLK1)
Sequence (P35918 whole entry): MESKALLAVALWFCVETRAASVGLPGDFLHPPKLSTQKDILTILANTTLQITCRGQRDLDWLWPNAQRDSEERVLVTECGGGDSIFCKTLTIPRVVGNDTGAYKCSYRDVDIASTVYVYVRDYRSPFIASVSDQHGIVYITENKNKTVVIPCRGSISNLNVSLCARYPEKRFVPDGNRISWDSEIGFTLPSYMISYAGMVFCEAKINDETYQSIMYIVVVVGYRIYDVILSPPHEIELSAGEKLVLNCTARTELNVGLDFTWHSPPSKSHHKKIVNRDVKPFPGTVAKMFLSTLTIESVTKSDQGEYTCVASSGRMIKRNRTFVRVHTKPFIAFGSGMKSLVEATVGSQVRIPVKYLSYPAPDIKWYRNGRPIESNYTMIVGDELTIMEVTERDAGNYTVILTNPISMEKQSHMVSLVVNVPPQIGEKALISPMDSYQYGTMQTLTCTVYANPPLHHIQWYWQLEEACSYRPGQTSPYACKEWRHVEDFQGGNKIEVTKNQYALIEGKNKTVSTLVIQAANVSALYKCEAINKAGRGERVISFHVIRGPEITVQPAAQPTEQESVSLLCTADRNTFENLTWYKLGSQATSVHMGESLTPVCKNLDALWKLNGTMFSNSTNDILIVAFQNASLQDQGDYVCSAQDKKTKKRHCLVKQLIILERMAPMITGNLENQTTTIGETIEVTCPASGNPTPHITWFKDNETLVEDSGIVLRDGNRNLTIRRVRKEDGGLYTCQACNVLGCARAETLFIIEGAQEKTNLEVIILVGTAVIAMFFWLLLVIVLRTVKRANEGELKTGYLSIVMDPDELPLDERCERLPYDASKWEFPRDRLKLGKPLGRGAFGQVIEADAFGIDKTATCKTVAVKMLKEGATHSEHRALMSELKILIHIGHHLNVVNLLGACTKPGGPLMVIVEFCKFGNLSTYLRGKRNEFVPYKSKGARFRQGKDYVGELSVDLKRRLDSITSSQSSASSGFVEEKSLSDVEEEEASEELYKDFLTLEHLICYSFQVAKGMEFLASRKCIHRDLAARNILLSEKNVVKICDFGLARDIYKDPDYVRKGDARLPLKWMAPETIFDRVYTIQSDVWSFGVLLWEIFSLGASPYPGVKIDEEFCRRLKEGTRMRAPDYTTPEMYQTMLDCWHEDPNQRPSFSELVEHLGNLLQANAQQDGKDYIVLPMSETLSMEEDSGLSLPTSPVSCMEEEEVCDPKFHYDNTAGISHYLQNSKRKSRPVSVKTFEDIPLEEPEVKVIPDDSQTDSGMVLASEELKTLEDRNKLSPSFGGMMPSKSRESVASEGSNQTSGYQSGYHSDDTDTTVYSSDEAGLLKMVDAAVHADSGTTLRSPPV

SMILES	IC50 [µM]
O=C1Nc2ccccc2/C1=C\c1cc(Br)cs1	1000
CCc1ccc(/C=C2/C(=O)Nc3ccccc32)s1	3.39
Cn1cc(Cl)c(/C=C2/C(=O)Nc3ccccc32)n1	1000
CC(C)c1cc(/C=C2/C(=O)Nc3ccccc32)cc(C(C)C)c1O	8.51
O=C1Nc2ccccc2/C1=C\c1ccc(N2CCCC2)cc1	3.02
CCOC(=O)c1c(C)[nH]c(/C=C2/C(=O)Nc3ccccc32)c1C	0.0708
COc1ccc(/C=C2/C(=O)Nc3ccccc32)cc1C(C)(C)C	1000
O=C1Nc2ccccc2/C1=C\c1ccc(O)cc1	2.69
CN(C)c1ccc(/C=C2/C(=O)Nc3cc(F)ccc32)cc1	4.57
Cc1cc(C)c(/C=C2/C(=O)Nc3cc(F)ccc32)[nH]1	0.708
Cc1c[nH]c(/C=C2/C(=O)Nc3ccccc32)c1C	2.69
CN(C)c1ccc(/C=C2/C(=O)Nc3ccccc32)cc1	0.794
O=C1Nc2ccccc2/C1=C\c1ccco1	1000
C/C(=C1\C(=O)Nc2ccccc21)c1ccc(N2CCCCC2)cc1	1000
O=CN1CCN(c2ccc(/C=C3\C(=O)Nc4ccccc43)cc2)CC1	5.13
CCc1c(C)[nH]c(/C=C2/C(=O)Nc3ccccc32)c1C	1000
O=C1Nc2ccccc2/C1=C\c1ccc(Br)cc1	1000
COc1ccc(/C=C2/C(=O)Nc3ccccc32)cc1	7.59
CN1C(=O)/C(=C/c2ccc(Br)cc2)c2ccccc21	1000

SMILES	IC50 [µM]
Cc1c[nH]c(/C=C2/C(=O)Nc3ccccc32)c1CCC(O)O	0.398
CCc1c(/C=C2/C(=O)Nc3ccccc32)[nH]c(C)c1C	0.141
Cn1cccc1/C=C1/C(=O)Nc2ccccc21	20.4
O=C1Nc2ccccc2/C1=C\c1n[nH]cc1Cl	7.41
O=C1Nc2ccccc2/C1=C\c1ccc(N2CCOCC2)cc1	2.51
CC(C)(C)c1cc(/C=C2/C(=O)Nc3ccccc32)cc(Br)c1O	46.8
O=C1Nc2cc(F)ccc2/C1=C\c1ccc[nH]1	0.708
CN(C)c1ccc(/C=C2/C(=O)N(C)c3ccccc32)cc1	22.4
CCOC(=O)c1c[nH]c(/C=C2/C(=O)Nc3ccccc32)c1C	0.182
CC(C)(C)c1cc(/C=C2/C(=O)Nc3ccccc32)cc(C(C)(C)C)c1O	8.32
O=C1Nc2ccccc2/C1=C\c1ccc(N2CCCCC2)cc1	4.47
CSc1ccc(/C=C2/C(=O)Nc3ccccc32)s1	2.34
COc1ccc(/C=C2\C(=O)Nc3ccc(Cl)cc32)cc1C(C)(C)C	1000
CSc1ccc(/C=C2\C(=O)Nc3cccc(C)c32)s1	1000
COc1c(Br)cc(/C=C2\C(=O)Nc3ccc(Cl)cc32)cc1C(C)(C)C	1000
O=C1Nc2ccc(Br)cc2/C1=C/c1ccc(N2CCOCC2)cc1	50.1
O=C1Nc2ccc([N+](=O)[O-])cc2/C1=C/c1ccc[nH]1	1000
O=CN1CCN(c2ccc(/C=C3\C(=O)Nc4ccc(Br)cc43)cc2)CC1	100
